System: circulating lymphocytes
Experiment: Assessment of in vivo efficacy: circulating lymphocytes after oral administration
Set-up: species or system rat
Details: 6 h after oral administration of 10 mg/kg, normotensive male Wistar rats, compared to vehicle-treated group
Method: Assessment of In Vivo Efficacy
The efficacy of the compounds of Formula (I) is assessed by measuring the circulating lymphocytes after oral administration of 3 to 30 mg/kg of a compound of Formula (I) to normotensive male Wistar rats. The animals are housed in climate-controlled conditions with a 12 h-light/dark cycle, and have free access to normal rat chow and drinking water. Blood is collected before and 3, 6 and 24 h after drug administration. Full blood is subjected to hematology using Advia Hematology system (Bayer Diagnostics, Zürich, Switzerland).
All data are presented as mean±SEM. Statistical analyses are performed by analysis of variance (ANOVA) using Statistica (StatSoft) and the Student-Newman-Keuls procedure for multiple comparisons. The null hypothesis is rejected when p<0.05.

In order of falling Lymphocyte counts:
1. CCc1cc(-c2nc(-c3cc(C)c(OC[C@H](O)CNC(=O)CO)c(CC)c3)no2)cnc1N(CC)CC [Example 27, N-((R)-3-{4-[5-(6-Diethylamino-5-ethyl-pyridin-3-yl)-[1,2,4]oxadiazol-3-yl]-2-ethyl-6-methyl-phenoxy}-2-hydroxy-propyl)-2-hydroxy-acetamide]  −55%
2. CCc1cc(-c2nc(-c3cc(C)c(OC[C@@H](O)CNC(=O)CO)c(CC)c3)no2)cnc1N(CC)CC [Example 28, N-((S)-3-{4-[5-(6-Diethylamino-5-ethyl-pyridin-3-yl)-[1,2,4]oxadiazol-3-yl]-2-ethyl-6-methyl-phenoxy}-2-hydroxy-propyl)-2-hydroxy-acetamide]  −56%
3. CCc1cc(-c2nc(-c3cc(C)c(OC[C@@H](O)CNC(=O)CO)c(CC)c3)no2)cnc1N1CCCC1 [Example 54, N-((S)-3-{2-Ethyl-4-[5-(5-ethyl-6-pyrrolidin-1-yl-pyridin-3-yl)-[1,2,4]oxadiazol-3-yl]-6-methyl-phenoxy}-2-hydroxy-propyl)-2-hydroxy-acetamide]  −57%
4. CCc1cc(-c2noc(-c3cnc(N(CC)CC)c(C)c3)n2)cc(C)c1OC[C@@H](O)CNC(=O)CO [Example 8, N-((S)-3-{-4-[5-(6-Diethylamino-5-methyl-pyridin-3-yl)-[1,2,4]oxadiazol-3-yl]-2-ethyl-6-methyl-phenoxy}-2-hydroxy-propyl)-2-hydroxy-acetamide]  −66%

Target: recombinant human S1P1 receptor (Homo sapiens, UniProt P21453)
Sequence (P21453 whole entry): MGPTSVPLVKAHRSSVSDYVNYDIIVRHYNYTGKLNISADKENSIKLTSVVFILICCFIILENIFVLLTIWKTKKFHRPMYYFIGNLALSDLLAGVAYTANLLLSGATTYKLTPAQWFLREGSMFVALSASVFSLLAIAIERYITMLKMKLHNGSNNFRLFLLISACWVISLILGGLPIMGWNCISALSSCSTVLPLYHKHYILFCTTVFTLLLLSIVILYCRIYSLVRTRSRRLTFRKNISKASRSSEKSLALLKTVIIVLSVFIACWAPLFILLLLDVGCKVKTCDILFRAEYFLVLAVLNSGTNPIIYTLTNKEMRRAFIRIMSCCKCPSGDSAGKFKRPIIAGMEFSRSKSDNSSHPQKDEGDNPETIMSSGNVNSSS
Experiment: GTPγS assay to determine EC50 values
Assay type: biochemical
Details: not given
Method: GTPγS Assay to Determine EC50 Values
The pH is 7.4. Test compounds are dissolved and diluted in 100% DMSO and pre-incubated at room temperature for 30 min in 150 μl of the above assay buffer, in the absence of ^35S-GTPγS. After addition of 50 μl of ^35S-GTPγS, the assay is incubated for 1 h at rt. […] Membrane-bound ^35S-GTPγS is measured with a TopCount from Packard Biosciences.
Specific binding is determined by subtracting non-specific binding from maximal binding. Maximal binding is the amount of cpm bound to the Multiscreen plate in the presence of 10 μM of S1P. Non-specific binding is the amount of binding in the absence of an agonist in the assay.

Work on CCc1cc(-c2nc(-c3cc(C)c(CCC(=O)NCCO)c(CC)c3)no2)cnc1N(C)C(C)C [Example 46, 3-(2-Ethyl-4-{5-[5-ethyl-6-(isopropyl-methyl-amino)-pyridin-3-yl]-[1,2,4]oxadiazol-3-yl}-6-methyl-phenyl)-N-(2-hydroxy-ethyl)-propionamide] yielded an EC50 of 5 nM.

Same assay, conditions: 35S-GTPγS binding, membrane preparations of CHO cells expressing recombinant human S1P1 receptor; read-out: EC50

In order of falling EC50:
1. CCc1cc(-c2nnc(-c3cnc(N(CC)CC)c(C)c3)o2)cc(C)c1OC[C@@H](O)CNC(=O)CO [Example 68, N-((2S)-3-{4-[5-(6-Diethylamino-5-methyl-pyridin-3-yl)-[1,3,4]oxadiazol-2-yl]-2-ethyl-6-methyl-phenoxy}-2-hydroxy-propyl)-2-hydroxy-acetamide]  21.2 nM
2. CCc1cc(-c2noc(-c3cnc(N(C)C(C)C)c(C)c3)n2)cc(C)c1OC[C@@H](O)CNC(=O)CO [Example 15, N-[(S)-3-(2-Ethyl-4-{5-[6-(isopropyl-methyl-amino)-5-methyl-pyridin-3-yl]-[1,2,4]oxadiazol-3-yl}-6-methyl-phenoxy)-2-hydroxy-propyl]-2-hydroxy-acetamide]  20 nM
3. CCc1cc(-c2nc(-c3cc(C)c(OC[C@@H](O)CO)c(CC)c3)no2)cnc1N(C)C(C)C [Example 31, (S)-3-(2-Ethyl-4-{5-[5-ethyl-6-(isopropyl-methyl-amino)-pyridin-3-yl]-[1,2,4]oxadiazol-3-yl}-6-methyl-phenoxy)-propane-1,2-diol]  17 nM
4. CCN(CC)c1ncc(-c2nc(-c3ccc(OC[C@@H](O)CNC(=O)CO)cc3C)no2)cc1C [Example 58, N-((S)-3-{4-[5-(6-Diethylamino-5-methyl-pyridin-3-yl)-[1,2,4]oxadiazol-3-yl]-3-methyl-phenoxy}-2-hydroxy-propyl)-2-hydroxy-acetamide]  14 nM
5. CCc1cc(-c2nc(-c3cc(C)c(OC[C@@H](O)CO)c(CC)c3)no2)cnc1N(CC)CC [Example 24, (S)-3-{4-[5-(6-Diethylamino-5-ethyl-pyridin-3-yl)-[1,2,4]oxadiazol-3-yl]-2-ethyl-6-methyl-phenoxy}-propane-1,2-diol]  12 nM
6. CCN(CC)c1ncc(-c2nc(-c3cc(Cl)c(OC[C@@H](O)CO)c(OC)c3)no2)cc1C [Example 64, (S)-3-{2-Chloro-4-[5-(6-diethylamino-5-methyl-pyridin-3-yl)-[1,2,4]oxadiazol-3-yl]-6-methoxy-phenoxy}-propane-1,2-diol]  8.9 nM
7. CCN(CC)c1ncc(-c2nc(-c3cc(C)c(OC[C@@H](O)CO)c(Cl)c3)no2)cc1C [Example 63, (S)-3-{2-Chloro-4-[5-(6-diethylamino-5-methyl-pyridin-3-yl)-[1,2,4]oxadiazol-3-yl]-6-methyl-phenoxy}-propane-1,2-diol]  5.2 nM
8. CCc1cc(-c2nc(-c3cc(C)c(CCC(=O)NCC(=O)O)c(CC)c3)no2)cnc1N(CC)CC [Example 44, (3-{4-[5-(6-Diethylamino-5-ethyl-pyridin-3-yl)-[1,2,4]oxadiazol-3-yl]-2-ethyl-6-methyl-phenyl}-propionylamino)-acetic acid]  4 nM
9. CCc1cc(-c2noc(-c3cnc(N(C)CC)c(C)c3)n2)cc(C)c1OC[C@H](O)CNC(=O)CO [Example 6, N-[(R)-3-(2-Ethyl-4-{5-[6-(ethyl-methyl-amino)-5-methyl-pyridin-3-yl]-[1,2,4]oxadiazol-3-yl}-6-methyl-phenoxy)-2-hydroxy-propyl]-2-hydroxy-acetamide]  3 nM
10. CCc1cc(-c2nc(-c3cc(C)c(OC[C@H](O)CNC(=O)CO)c(CC)c3)no2)cnc1N(C)C(C)C [Example 34, N-[(R)-3-(2-Ethyl-4-{5-[5-ethyl-6-(isopropyl-methyl-amino)-pyridin-3-yl]-[1,2,4]oxadiazol-3-yl}-6-methyl-phenoxy)-2-hydroxy-propyl]-2-hydroxy-acetamide]  3 nM
11. CCN(CC)c1ncc(-c2nc(-c3cc(C)c(OC[C@@H](O)CNC(=O)CO)c(Cl)c3)no2)cc1C [Example 56, N-((S)-3-{2-Chloro-4-[5-(6-diethylamino-5-methyl-pyridin-3-yl)-[1,2,4]oxadiazol-3-yl]-6-methyl-phenoxy}-2-hydroxy-propyl)-2-hydroxy-acetamide]  1.3 nM
12. CCN(CC)c1ncc(-c2nc(-c3cc(C)c(OC[C@@H](O)CNC(=O)CO)c(C)c3)no2)cc1C [Example 55, N-((S)-3-{4-[5-(6-Diethylamino-5-methyl-pyridin-3-yl)-[1,2,4]oxadiazol-3-yl]-2,6-dimethyl-phenoxy}-2-hydroxy-propyl)-2-hydroxy-acetamide]  0.9 nM

Same assay, conditions: 35S-GTPγS binding, membranes of CHO cells expressing human S1P1; read-out: EC50

CCc1cc(-c2noc(-c3cnc(N4CCCC4)c(C)c3)n2)cc(C)c1OC[C@H](O)CN [Example 18] and CCc1cc(-c2noc(-c3cnc(N4CCCC4)c(C)c3)n2)cc(C)c1OC[C@@H](O)CN [Example 19] cannot be ordered by EC50: over 10000 nM for the first, over 10000 nM for the second.

Reference: patent US20110028448A1, “PYRIDINE COMPOUNDS” (priority 2008, published 2011)
